According to patent US20240382600A1, “BIFUNCTIONAL DEGRADERS COMPRISING A TEAD BINDER” (Novartis AG, priority 2021, published 2024):

How the values were obtained:
[1] = test system: SF268-MCAT_Luc_dox-i-shYAPLevy (Clone 13) cells; assay: Proliferation assay (resazurin/AlamarBlue), SF268; assay type: cell-based; conditions: SF268, 72 hours
[2] = target: Avi-humanTEAD4^217-434 / Cy5 labeled humanYAP^60-100 (Homo sapiens (Human), UniProt Q15561); assay: In-vitro biochemical TR-FRET assay (TEAD4/YAP); assay type: binding; conditions: 1 h at room temperature
[3] = test system: MKN-45/Ubc-luc cells (unspecific inhibition of luciferase expression or activity); assay: Reporter gene assay specificity control (Ubc-Luc), MKN-45; assay type: cell-based; conditions: MKN-45/Ubc-luc specificity control, 24 hrs
How it was run: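 MKN-45 cells stably carrying a ubiquitin C promoter–firefly luciferase construct, treated the day after seeding with eleven 2-fold compound dilutions (0.1% DMSO final) for 24 hrs at 37° C. Luminescence read 5 min after Steady Glo addition; cell-free background subtracted, as a control for nonspecific luciferase inhibition.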

[4] = test system: NCI-H2052 Tet-On shYAP_2371 pLenti6 MCAT_Luc cells; assay: Proliferation assay (resazurin/AlamarBlue), NCI-H2052; assay type: cell-based; conditions: NCI-H2052, 72 hours
[5] = target: TEAD1-GFP in HEK293A cells (Homo sapiens (Human), UniProt P28347); assay: TEAD1 protein abundance flow cytometry assay in HEK293A; assay type: cell-based; conditions: HEK293A TEAD1-GFP-CHYSEL-mCherry sensor cells, 24 h, GFP signal by flow cytometry
Description: Degradation of TEAD1 was measured in HEK293A cells (Invitrogen R70507) expressing TEAD1-GFP and mCherry from a stably integrated bicistronic TEAD1-GFP-CHYSEL-mCherry construct. Reduction of the GFP signal measured by flow cytometry served as readout for TEAD1 degradation after degrader treatment.
Stable HEK293A sensor cells were maintained in complete growth medium (DMEM high Glucose+10% FCS+1% L-Glutamine+1% NEAA+1% NaPyr.+4 μg/mL blasticidin) with passaging performed twice per week. On Day 0, stable HEK293A sensor cells were seeded at 5,000 cells/well in a 96-well microtiter plate in 100 μL complete medium. On Day 1, cells were treated in duplicate with 10-point 1:3 dilution series of compound using the HP D300 Digital Dispenser (Tecan). DMSO concentrations were normalized across the plate to 0.1%. On Day 2, after 24 h of incubation at 37° C., treatment media was discarded, cells rinsed with 100 μL/well PBS and then detached using 40 μL trypsin/well for 5 min. Trypsin was neutralized with 100 μL/well PBS+20% FCS).
Flow cytometry was performed on the samples using the CytoFlex S (Beckman Coulter). Cell identification was then performed using forward (FSC) vs. side scatter (SSC) plots. Single cell discrimination was performed using SSC-Width (SSC-W) vs. SSC-Height (SSCH) plots. Median GFP values for 2,500 single cells were used to determine TEAD1 levels. Median GFP values from HEK293A were used as a background signal and thus defining 0% TEAD1 signal. Median GFP values from DMSO treated HEK293A TEAD1-GFP CHYSEL-mCherry were used to define 100%
TEAD1 signal for subsequent DC50 curves (concentration at 50% TAED1 degradation). GFP and RFP were read in the channels called FITC and PE, respectively. Concentration response curves plotting relative reduction of the GFP signal (measured by flow cytometry) versus 10 compound concentrations (starting concentration 10 μM, 3 fold dilution steps) of the compounds allowed generation of DC50 values.

[6] = test system: YAP-dependent transcription in NCI-H2052 Tet-On shYAP_2371 pLenti6 MCAT_Luc cells; assay: YAP reporter gene activity assay (MCAT-Luc), NCI-H2052; assay type: cell-based; conditions: 24 hrs
[7] = test system: YAP-dependent transcription in SF268-MCAT_Luc_dox-i-shYAPLevy (Clone 13) cells; assay: YAP reporter gene activity assay (MCAT-Luc), SF268; assay type: cell-based; conditions: SF268 MCAT_Luc, 24 hrs
MKN-45/Ubc-luc cells = assay: Proliferation assay (resazurin/AlamarBlue), MKN-45; assay type: cell-based; conditions: MKN-45, 72 hours
How it was run: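 MKN-45 cells carrying constitutive Ubc-driven luciferase reporter, treated the day after seeding with eleven 2-fold dilutions (0.1% DMSO) for 72 h at 37 °C. Viability by resazurin, referenced to day-0 plate; GI50 from % growth (100 none, 0 stasis, −100 kill) and residual viability at top concentration.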

Chain of TEAD1-GFP in HEK293A cells (P28347 whole entry): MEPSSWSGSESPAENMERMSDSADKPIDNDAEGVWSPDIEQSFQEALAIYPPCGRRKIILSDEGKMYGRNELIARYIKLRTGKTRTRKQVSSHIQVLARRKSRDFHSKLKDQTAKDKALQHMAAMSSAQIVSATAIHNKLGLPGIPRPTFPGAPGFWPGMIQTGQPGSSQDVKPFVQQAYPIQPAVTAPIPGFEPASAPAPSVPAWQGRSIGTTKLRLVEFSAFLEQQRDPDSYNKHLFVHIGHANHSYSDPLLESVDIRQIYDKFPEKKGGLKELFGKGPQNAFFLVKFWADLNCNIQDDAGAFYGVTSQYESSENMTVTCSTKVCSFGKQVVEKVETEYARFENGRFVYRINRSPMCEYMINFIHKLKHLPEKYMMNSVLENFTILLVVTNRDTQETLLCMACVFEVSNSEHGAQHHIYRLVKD
Chain of Avi-humanTEAD4^217-434 / Cy5 labeled humanYAP^60-100 (Q15561 217-434): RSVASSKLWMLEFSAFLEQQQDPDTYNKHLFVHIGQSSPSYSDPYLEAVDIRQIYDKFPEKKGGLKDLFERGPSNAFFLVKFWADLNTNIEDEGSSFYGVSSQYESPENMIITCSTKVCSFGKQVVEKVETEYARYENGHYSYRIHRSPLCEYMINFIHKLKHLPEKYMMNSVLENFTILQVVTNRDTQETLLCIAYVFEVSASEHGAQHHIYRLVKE

| Molecule | GI50 ([1]; Homo sapiens, SF-268) [nM] | IC50 [2] [nM] | IC50 ([3]; Homo sapiens) [nM] | GI50 ([4]; Homo sapiens) [nM] | DC50 [5] [nM] | IC50 ([6]; Homo sapiens) [nM] | IC50 ([7]; Homo sapiens, SF-268) [nM] | GI50 (MKN-45/Ubc-luc cells; Homo sapiens) [nM] | GI50 [1] [nM] | IC50 [3] [nM] | GI50 [4] [nM] | IC50 [6] [nM] | IC50 [7] [nM] | GI50 (MKN-45/Ubc-luc cells) [nM] |
| --- | --- | --- | --- | --- | --- | --- | --- | --- | --- | --- | --- | --- | --- | --- |
| COc1ccc(C(N)=O)c(-c2c(Cl)c(F)cc3c2[C@H](C)[C@@](CN[C@H]2CC[C@H](C(=O)N4CCN(CC5CCN(C(=O)COc6ccc(C)c(N7CCC(=O)NC7=O)c6)CC5)CC4)CC2)(c2ccccc2)O3)c1F (atropisomer, axis not shown) [Example 22, 2-((2S,3S,4S)-5-chloro-2-((((1r,4S)-4-(4-((1-(2-(3-(2,4-dioxotetrahydropyrimidin-1(2H)-yl)-4-methylphenoxy)acetyl)piperidin-4-yl)methyl)piperazine-1-carbonyl)cyclohexyl)amino)methyl)-6-fluoro-3-methyl-2-phenyl-2,3-dihydrobenzofuran-4-yl)-3-fluoro-4-methoxybenzamide] | 9.5 | 1 | > 2000 | 9.5 | 0.4 | 2 | 0.18 | > 2000 |  |  |  |  |  |  |
| COc1ccc(C(=O)N2CCN(CC3CCN(C(=O)[C@H]4CC[C@H](NC[C@]5(c6ccccc6)Oc6cc(F)c(Cl)c(-c7c(C(N)=O)ccc(OC)c7F)c6[C@@H]5C)CC4)CC3)CC2)cc1N1CCC(=O)NC1=O (atropisomer, axis not shown) [Example 6, 2-((2S,3S,4S)-5-chloro-2-((((1r,4S)-4-(4-((4-(3-(2,4-dioxotetrahydropyrimidin-1(2H)-yl)-4-methoxybenzoyl)piperazin-1-yl)methyl)piperidine-1-carbonyl)cyclohexyl)amino)methyl)-6-fluoro-3-methyl-2-phenyl-2,3-dihydrobenzofuran-4-yl)-3-fluoro-4-methoxybenzamide] | 39 | 1.5 | > 20000 | 61 | 2 | 16 | 0.5 | > 20000 |  |  |  |  |  |  |
| COc1ccc(C(=O)N2CCC(OC3CCN(C(=O)[C@H]4CC[C@H](NC[C@]5(c6ccccc6)Oc6cc(F)c(Cl)c(-c7c(C(N)=O)ccc(OC)c7F)c6[C@@H]5C)CC4)CC3)CC2)cc1N1CCC(=O)NC1=O (atropisomer, axis not shown) [Example 2, 2-((2S,3S,4S)-5-chloro-2-((((1r,4S)-4-(4-((1-(3-(2,4-dioxotetrahydropyrimidin-1(2H)-yl)-4-methoxybenzoyl)piperidin-4-yl)oxy)piperidine-1-carbonyl)cyclohexyl)amino)methyl)-6-fluoro-3-methyl-2-phenyl-2,3-dihydrobenzofuran-4-yl)-3-fluoro-4-methoxybenzamide] | 41 | 1.4 | > 20000 | 48 | 2 | 13 | 0.9 | > 20000 |  |  |  |  |  |  |
| COc1ccc(C(N)=O)c(-c2c(Cl)c(F)cc3c2[C@H](C)[C@@](CN[C@H]2CC[C@H](C(=O)N4CCC(OC5CCN(C(=O)COc6cc(-c7scnc7C)ccc6CNC(=O)[C@@H]6C[C@@H](O)CN6C(=O)[C@@H](NC(=O)C6(F)CC6)C(C)(C)C)CC5)CC4)CC2)(c2ccccc2)O3)c1F (atropisomer, axis not shown) [Example 38, (2S,4R)-N-(2-(2-(4-((1-((1S,4r)-4-((((2S,3S,4S)-4-(6-carbamoyl-2-fluoro-3-methoxyphenyl)-5-chloro-6-fluoro-3-methyl-2-phenyl-2,3-dihydrobenzofuran-2-yl)methyl)amino)cyclohexane-1-carbonyl)piperidin-4-yl)oxy)piperidin-1-yl)-2-oxoethoxy)-4-(4-methylthiazol-5-yl)benzyl)-1-((S)-2-(1-fluorocyclopropane-1-carboxamido)-3,3-dimethylbutanoyl)-4-hydroxypyrrolidine-2-carboxamide] | 24 | 7 | > 2000 | 22 | 1 | 4 | 0.42 | > 2000 |  |  |  |  |  |  |
| N-(4-(1-((1S,4r)-4-((((2S,3S,4S)-4-(6-carbamoyl-2-fluoro-3-methoxyphenyl)-5-chloro-6-fluoro-3-methyl-2-phenyl-2,3-dihydrobenzofuran-2-yl)methyl)amino)cyclohexane-1-carbonyl)piperidin-4-yl)butyl)-3-(2,4-dioxotetrahydropyrimidin-1(2H)-yl)-4-methoxybenzamide [Example 18] |  | 3.9 |  |  | 2 |  |  |  | 60 | > 2000 | 27 | 9.9 | 1.3 | > 2000 |
| COc1ccc(C(N)=O)c(-c2c(Cl)c(F)cc3c2[C@H](C)[C@@](CN[C@H]2CC[C@H](C(=O)N4CCC(CN5CCN(C(=O)COc6ccc(C)c(N7CCC(=O)NC7=O)c6)CC5)CC4)CC2)(c2ccccc2)O3)c1F (atropisomer, axis not shown) [Example 12, 2-((2S,3S,4S)-5-chloro-2-((((1r,4S)-4-(4-((4-(2-(3-(2,4-dioxotetrahydropyrimidin-1(2H)-yl)-4-methylphenoxy)acetyl)piperazin-1-yl)methyl)piperidine-1-carbonyl)cyclohexyl)amino)methyl)-6-fluoro-3-methyl-2-phenyl-2,3-dihydrobenzofuran-4-yl)-3-fluoro-4-methoxybenzamide] | 20 | 1.6 | > 2000 | 15 | 1 | 4 | 0.38 | > 2000 |  |  |  |  |  |  |
| COc1ccc(C(N)=O)c(-c2c(Cl)c(F)cc3c2[C@H](C)[C@@](CN[C@H]2CC[C@H](C(=O)N4CCC(CC5CCN(C(=O)COc6ccc(N7CCC(=O)NC7=O)c(C)c6)CC5)CC4)CC2)(c2ccccc2)O3)c1F (atropisomer, axis not shown) [Example 26, 2-((2S,3S,4S)-5-chloro-2-((((1r,4S)-4-(4-((1-(2-(4-(2,4-dioxotetrahydropyrimidin-1(2H)-yl)-3-methylphenoxy)acetyl)piperidin-4-yl)methyl)piperidine-1-carbonyl)cyclohexyl)amino)methyl)-6-fluoro-3-methyl-2-phenyl-2,3-dihydrobenzofuran-4-yl)-3-fluoro-4-methoxybenzamide] | 12 | 4 | > 2000 | 2.5 | 0.3 | 1.3 | 0.26 | > 2000 |  |  |  |  |  |  |
| COc1ccc(C(=O)N2CCN(CC3CN(C(=O)[C@H]4CC[C@H](NC[C@]5(c6ccccc6)Oc6cc(F)c(Cl)c(-c7c(C(N)=O)ccc(OC)c7F)c6[C@@H]5C)CC4)C3)CC2)cc1N1CCC(=O)NC1=O (atropisomer, axis not shown) [Example 9, 2-((2S,3S,4S)-5-chloro-2-((((1r,4S)-4-(3-((4-(3-(2,4-dioxotetrahydropyrimidin-1(2H)-yl)-4-methoxybenzoyl)piperazin-1-yl)methyl)azetidine-1-carbonyl)cyclohexyl)amino)methyl)-6-fluoro-3-methyl-2-phenyl-2,3-dihydrobenzofuran-4-yl)-3-fluoro-4-methoxybenzamide] | 120 | 1.2 | > 2000 | 1190 | 112 | 350 | 3.5 | > 2000 |  |  |  |  |  |  |
